Source: ChEMBL document CHEMBL1127616, “Synthesis, structural characterization, and antitumor properties of a novel class of large-ring platinum(II) chelate complexes incorporating the cis-1,4-diaminocyclohexane ligand in a unique locked boat conformation” (J Med Chem, 1994)

Tests used:
Format in all cases: functional, cell-based
Settings in all cases: Mus musculus
L1210 [1] = experiment: Tested for in vitro growth inhibition against murine leukemia cell L1210DDP5
P388 [2] = experiment: Tested for in vitro growth inhibition against murine leukemia cell P388Pt4
L1210 [3] = experiment: Tested for in vitro growth inhibition against murine leukemia cell L1210PtR4
L1210 [4] = experiment: Tested for in vitro growth inhibition against murine leukemia cell L1210S
P388 [5] = experiment: Tested for in vitro growth inhibition against murine leukemia cell P388S
L1210 [6] = experiment: Tested for in vitro growth inhibition against murine leukemia cell L1210DACH

Substance	ID50 (L1210 [1])	ID50 (P388 [2])	ID50 (L1210 [3])	ID50 (L1210 [4])	ID50 (P388 [5])	ID50 (L1210 [6])
CI-973	3.9 µg/mL	1.62 µg/mL	2.6 µg/mL	0.76 µg/mL	0.1 µg/mL	1.8 µg/mL
[Pt(1R,2R-dach)Cl2]	0.164 µg/mL	0.83 µg/mL	0.161 µg/mL	0.059 µg/mL	0.077 µg/mL	4.57 µg/mL
